According to ChEMBL document CHEMBL1145977, “Synthesis and dopamine receptor modulating activity of 3-substituted gamma-lactam peptidomimetics of L-prolyl-L-leucyl-glycinamide” (J Med Chem, 2003):

How the values were obtained:
Type in all cases: functional
[1] = target: T1, Dopamine receptor (Rattus norvegicus) (UniProt P25115+P19020+P30729+P18901+P61169); assay: Dopamine receptor modulating activity of compound was evaluated by rat nigrostriatal 6-hydroxydopamine lesion rotation model at dose of 1 ug/kg given intraperitoneally
[2] = species: Bos taurus; assay: Percent enhancement of [3H]NPE binding to bovine striatal membranes at 100 nM concentration; conditions: Striatum, Membrane
[3] = target: T1, Dopamine receptor (Rattus norvegicus); assay: Dopamine receptor modulating activity of compound was evaluated by rat nigrostriatal 6-hydroxydopamine lesion rotation model at dose of 0.1 ug/kg given intraperitoneally

`CC(C)C[C@@]1(NC(=O)[C@@H]2CCCN2)C[C@H]2SC[C@H](C(N)=O)N2C1=O` was tested, and the Enhancement [1] was 44%.

For `CCCC[C@@]1(NC(=O)[C@@H]2CCCN2)CCN(CC(N)=O)C1=O`, the Enhancement [2] was 89%.

With `CC(C)C[C@@]1(NC(=O)[C@@H]2CCCN2)CCN(CC(N)=O)C1=O` the Enhancement [2] was 59%.

Work on `CCCC[C@@]1(NC(=O)[C@@H]2CCCN2)C[C@H]2SC[C@H](C(N)=O)N2C1=O` yielded an Enhancement [3] of 56%.

Work on `NC(=O)[C@H]1CS[C@@H]2C[C@@](Cc3ccccc3)(NC(=O)[C@@H]3CCCN3)C(=O)N12` yielded an Enhancement [1] of 30%.

`NC(=O)[C@H]1CS[C@@H]2C[C@@H](NC(=O)[C@@H]3CCCN3)C(=O)N12` gave an Enhancement [3] of 23%.

Molecule `NC(=O)CN1CC[C@@](Cc2ccccc2)(NC(=O)[C@@H]2CCCN2)C1=O` has an Enhancement [2] of 116%.

For `NC(=O)CN1CC[C@@H](NC(=O)[C@@H]2CCCN2)C1=O`, the Enhancement [2] was 36%.
